Data: patent US12303845B2, “Method for crystallization of active pharmaceutical ingredients” (Nanoform Finland Oyj, priority 2023, dated 2025)

Tests used:
[1] = SEM of crystallized suspensions and dried products (crystal size grade, particle size); format: physicochemical; set-up: key: 5 = nanocrystals; 1 = large crystals
Experimental: SEM images were captured using the Zeiss Sigma 300 VP SEM instruments. Samples were dispersed into water and filtered with 0.1 μm filter. Filters were dried, transferred to SEM sample holders, and coated with a 5 nm thick layer of platinum. Amorphous API nanoparticles (budesonide, ezetimibe, ceritinib, and apalutamide) were added as dry powders to aqueous polymer solutions. The mixtures were either • (i) mixed with a magnetic stirrer and ultrasonicated until API was completely surrounded by water (wetted). The stirring was continued for 16-24 h at ambient temperature or • (ii) blended with a metal spatula and allowed to stay at room temperature for 18-24 h. The suspensions formed were analyzed after 18-24 h. SEM and XRD samples were prepared as described above. Suspension comprising nanosized APIs prepared as shown above were dried in a vacuum desiccator overnight. The solid materials were grounded to produce powders. The powders were analyzed on XRD and SEM. The powders comprising nanosized APIs were used in the stability, permeability, and dissolution tests as described above.

[2] = Crystallization of amorphous nanosized API in aqueous polymer solution, polymorph/crystallinity by XRD; format: physicochemical
Experimental: XRPD measurements were carried out using the Malvern PANalytical Empyrean X-ray diffractometer equipped with a Cu Kα (1.54 Å) source, MultiCore optics and a solid-state PIXcel3D detector. By using Kapton tape the samples were attached onto aluminum or polycrystalline silicon sample holders. Dried slurries were measured without further sample preparation under Kapton tape and suspensions were filtered, dried, and filters were attached with double sided tape. The samples were measured in the reflection geometry in a spinning measurement stage. The measurement range was 5-40 (°2θ). The step size and time per step values were varied depending on the counts per second obtained.
Determination of crystallization of API nanoparticles was evaluated via kinetic study of suspension. Accordingly, XRD measurement was done for suspension in different time points.
Amorphous API nanoparticles (budesonide, ezetimibe, ceritinib, and apalutamide) were added as dry powders to aqueous polymer solutions. The mixtures were either • (i) mixed with a magnetic stirrer and ultrasonicated until API was completely surrounded by water (wetted). The stirring was continued for 16-24 h at ambient temperature or • (ii) blended with a metal spatula and allowed to stay at room temperature for 18-24 h.
The suspensions formed were analyzed after 18-24 h. SEM and XRD samples were prepared as described above.

[3] = HPMC 1 wt.-%, SLS 0.2 wt.-%, mAPI 25 mg/g
[4] = HPMC 1 wt.-%, no SLS, mAPI 25 mg/g
[5] = HPMC 2.5 wt.-%, SLS 0.2 wt.-%, mAPI 25 mg/g
[6] = HPMC 2.5 wt.-%, no SLS, mAPI 25 mg/g
[7] = HPMC 5 wt.-%, SLS 0.2 wt.-%, mAPI 100 mg/g
[8] = HPMC 5 wt.-%, SLS 0.2 wt.-%, mAPI 150 mg/g
[9] = HPMC 5 wt.-%, SLS 0.2 wt.-%, mAPI 200 mg/g
[10] = PVPVA 1 wt.-%, SLS 0.2 wt.-%, mAPI 25 mg/g
[11] = PVPVA 1 wt.-%, no SLS, mAPI 25 mg/g polymer solution
[12] = PVPVA 2.5 wt.-%, SLS 0.2 wt.-%, mAPI 25 mg/g
[13] = PVPVA 2.5 wt.-%, no SLS, mAPI 25 mg/g
[14] = PVPVA 5 wt.-%, SLS 0.2 wt.-%, mAPI 25 mg/g
[15] = PVPVA 5 wt.-%, no SLS, mAPI 25 mg/g
[16] = PVPVA 10 wt.-%, SLS 0.2 wt.-%, mAPI 25 mg/g
[17] = PVPVA 10 wt.-%, no SLS, mAPI 25 mg/g
[18] = PVPVA 20 wt.-%, no SLS, mAPI 200 mg/g
[19] = PVPVA 25 wt.-%, SLS 0.2 wt.-%, mAPI 500 mg/g
[20] = PVPVA 25 wt.-%, no SLS, mAPI 250 mg/g
[21] = PVPVA 25 wt.-%, no SLS, mAPI 500 mg/g
[22] = PVPVA 45 wt.-%, SLS 0.2 wt.-%, mAPI 450 mg/g
[23] = PVPVA 45 wt.-%, no SLS, mAPI 450 mg/g
[24] = Poloxamer 407 1 wt.-%, SLS 0.2 wt.-%, mAPI 25 mg/g
[25] = Poloxamer 407 1 wt.-%, no SLS, mAPI 25 mg/g
[26] = Poloxamer 407 2.5 wt.-%, SLS 0.2 wt.-%, mAPI 25 mg/g
[27] = Poloxamer 407 2.5 wt.-%, no SLS, mAPI 25 mg/g
[28] = Poloxamer 407 5 wt.-%, SLS 0.2 wt.-%, mAPI 25 mg/g
[29] = Poloxamer 407 5 wt.-%, no SLS, mAPI 25 mg/g
[30] = Poloxamer 407 15 wt.-%, SLS 0.2 wt.-%, mAPI 150 mg/g
[31] = Poloxamer 407 15 wt.-%, SLS 0.2 wt.-%, mAPI 300 mg/g
[32] = Poloxamer 407 15 wt.-%, SLS 0.2 wt.-%, mAPI 450 mg/g
[33] = Poloxamer 407 15 wt.-%, no SLS, mAPI 150 mg/g
[34] = Poloxamer 407 15 wt.-%, no SLS, mAPI 300 mg/g
[35] = Poloxamer 407 15 wt.-%, no SLS, mAPI 450 mg/g

## CNC(=O)c1ccc(N2C(=S)N(c3cnc(C#N)c(C(F)(F)F)c3)C(=O)C23CCC3)cc1F [Apa, apalutamide]
[1]; [3]
  Grade (SEM, visual inspection): 5
[1]; [4]
  Grade (SEM, visual inspection): 5
[1]; [5]
  Grade (SEM, visual inspection): 5
[1]; [6]
  Grade (SEM, visual inspection): 4
[1]; [7]
  Grade (SEM, visual inspection): 5
[1]; [8]
  Grade (SEM, visual inspection): 5
[1]; [9]
  Grade (SEM, visual inspection): 5
[1]; [10]
  Grade (SEM, visual inspection): 4
[1]; [11]
  Grade (SEM, visual inspection): 4
[1]; [12]
  Grade (SEM, visual inspection): 4
[1]; [13]
  Grade (SEM, visual inspection): 4
[1]; [14]
  Grade (SEM, visual inspection): 4
[1]; [15]
  Grade (SEM, visual inspection): 4
[1]; [16]
  Grade (SEM, visual inspection): 5
[1]; [17]
  Grade (SEM, visual inspection): 4
[1]; [18]
  Grade (SEM, visual inspection): 5
[1]; [19]
  Grade (SEM, visual inspection): 5
[1]; [20]
  Grade (SEM, visual inspection): 5
[1]; [21]
  Grade (SEM, visual inspection): 5
[1]; [22]
  Grade (SEM, visual inspection): 5
[1]; [23]
  Grade (SEM, visual inspection): 5
[1]; [24]
  Grade (SEM, visual inspection): 2
[1]; [25]
  Grade (SEM, visual inspection): 2
[1]; [26]
  Grade (SEM, visual inspection): 2
[1]; [27]
  Grade (SEM, visual inspection): 2
[1]; [28]
  Grade (SEM, visual inspection): 2
[1]; [29]
  Grade (SEM, visual inspection): 2
[1]; [30]
  Grade (SEM, visual inspection): 1
[1]; [31]
  Grade (SEM, visual inspection): 1
[1]; [32]
  Grade (SEM, visual inspection): 1
[1]; [33]
  Grade (SEM, visual inspection): 1
[1]; [34]
  Grade (SEM, visual inspection): 1
[1]; [35]
  Grade (SEM, visual inspection): 1
[2]; [3]
  Polymorph: new
[2]; [4]
  Polymorph: new
[2]; [5]
  Polymorph: new
[2]; [6]
  Polymorph: new
[2]; [7]
  Polymorph: new
[2]; [8]
  Polymorph: new
[2]; [9]
  Polymorph: new
[2]; HPMC 5 wt.-%, SLS 0.2 wt.-%, mAPI 250 mg/g
  Polymorph: new
[2]; HPMC 5 wt.-%, SLS 0.2 wt.-%, mAPI 300 mg/g
  Polymorph: new
[2]; HPMC 5 wt.-%, no SLS, mAPI 100 mg/g
  Polymorph: amorphous
[2]; [10]
  Polymorph: new
[2]; [11]
  Polymorph: new
[2]; [12]
  Polymorph: new
[2]; [13]
  Polymorph: new
[2]; [14]
  Polymorph: new
[2]; [15]
  Polymorph: new
[2]; [16]
  Polymorph: new
[2]; [17]
  Polymorph: new
[2]; PVPVA 15 wt.-%, no SLS, mAPI 450 mg/g
  Polymorph: amorphous
[2]; PVPVA 15 wt.-%, no SLS, mAPI 600 mg/g
  Polymorph: amorphous
[2]; [18]
  Polymorph: new
[2]; PVPVA 20 wt.-%, no SLS, mAPI 600 mg/g
  Polymorph: amorphous
[2]; [19]
  Polymorph: new
[2]; [20]
  Polymorph: new
[2]; [21]
  Polymorph: new
[2]; [22]
  Polymorph: new
[2]; [23]
  Polymorph: new
[2]; [24]
  Polymorph: Form B
[2]; [25]
  Polymorph: Form B
[2]; [26]
  Polymorph: Form B
[2]; [27]
  Polymorph: Form B
[2]; [28]
  Polymorph: Form B
[2]; [29]
  Polymorph: Form B
[2]; [30]
  Polymorph: Form B
[2]; [31]
  Polymorph: Form B
[2]; [32]
  Polymorph: Form B
[2]; [33]
  Polymorph: Form B
[2]; [34]
  Polymorph: Form B
[2]; [35]
  Polymorph: Form B
